From paper PMC7226869 (ACS Omega, 2020)
Read-outs that look alike come from different tables or passages of the source.

Experiments:
[1] = target: T1, New Delhi metallo-β-lactamase-1 (NDM-1) (Klebsiella pneumoniae, UniProt E9NWK5); assay: 1H-15N HSQC NMR titration; format: binding
KPC-2 = KPC-2 (Klebsiella pneumoniae, UniProt Q93LQ9); assay: carbapenemase inhibition at a single concentration; format: biochemical; details: read-out: % inhibition at 50 μM
[2] = target: T1, New Delhi metallo-β-lactamase-1 (NDM-1); assay: imipenem hydrolysis by purified NDM-1; format: biochemical
OXA-48 = OXA-48 (Klebsiella pneumoniae, UniProt Q6XEC0); assay: carbapenemase inhibition at a single concentration; format: biochemical; details: read-out: % inhibition at 50 μM
[3] = target: T1, New Delhi metallo-β-lactamase-1 (NDM-1); assay: imipenem hydrolysis by purified NDM-1; format: biochemical; remark: listed apart in the source

OXA-48, sequence (Q6XEC0 23-265 limits assumed): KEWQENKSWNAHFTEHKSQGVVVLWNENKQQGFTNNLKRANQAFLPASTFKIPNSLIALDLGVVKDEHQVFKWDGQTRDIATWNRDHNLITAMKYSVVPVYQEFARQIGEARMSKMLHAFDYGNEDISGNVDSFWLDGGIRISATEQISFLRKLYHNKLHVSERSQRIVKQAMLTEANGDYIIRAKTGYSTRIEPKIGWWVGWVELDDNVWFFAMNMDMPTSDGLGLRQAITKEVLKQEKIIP

Question: How did the Kd [1] turn out when `O=c1c(O)c(-c2ccc(O)cc2O)oc2cc(O)cc(O)c12` [morin] was run?
Answer: Its Kd is roughly 300 µM.

Question: How did the inhibition at 50 µM (KPC-2) turn out when `O=c1c(O)c(-c2cc(O)c(O)c(O)c2)oc2cc(O)cc(O)c12` [myricetin] was run?
Answer: Its inhibition at 50 µM is 78%.

Question: And the IC50 [2]?
Answer: Its IC50 is 3.3 µM.

Question: What about the inhibition at 50 µM (OXA-48) of the same molecule?
Answer: The inhibition at 50 µM was 90%.

Question: `O=c1c(O)c(-c2ccc(O)c(O)c2)oc2cc(O)cc(O)c12` [quercetin] was tested. Which IC50 [3] did it give?
Answer: Its IC50 is 5 to 10 µM.
